Literature values as cited in patent US20180128811A1 (JNC Corporation, priority 2012, published 2018).

Details: small doses (about less than 250 mg), first-order kinetics; cited from earlier work

CC(=O)Oc1ccccc1C(=O)O [aspirin, acetylsalicylic acid]
Elimination half-life: about 4 hours
